{"source": "paper PMC12521441", "about": "(Frontiers in Cellular and Infection Microbiology, 2025)", "key": {"[1]": {"target": "DENV4 helicase (Dengue virus type 4, UniProt Q2YHF0)", "sequence (Q2YHF0 1645-2092 limits assumed)": "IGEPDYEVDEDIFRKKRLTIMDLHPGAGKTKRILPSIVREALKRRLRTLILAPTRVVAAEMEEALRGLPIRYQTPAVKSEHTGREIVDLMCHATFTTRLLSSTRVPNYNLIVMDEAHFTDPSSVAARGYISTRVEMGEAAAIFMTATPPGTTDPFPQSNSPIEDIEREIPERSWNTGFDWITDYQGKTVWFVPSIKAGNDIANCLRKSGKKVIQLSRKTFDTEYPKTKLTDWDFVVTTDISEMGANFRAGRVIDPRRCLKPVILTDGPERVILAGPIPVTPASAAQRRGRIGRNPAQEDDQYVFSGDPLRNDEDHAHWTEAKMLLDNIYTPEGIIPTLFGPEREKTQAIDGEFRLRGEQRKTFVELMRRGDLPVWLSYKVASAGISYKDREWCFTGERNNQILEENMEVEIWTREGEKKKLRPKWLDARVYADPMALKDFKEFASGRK", "assay": "Isothermal titration calorimetry, DENV4 helicase", "assay_type": "binding", "settings": "ITC"}, "[2]": {"target": "DENV2 helicase (Dengue virus type 2, UniProt P29990)", "sequence (P29990 1646-2093 limits assumed)": "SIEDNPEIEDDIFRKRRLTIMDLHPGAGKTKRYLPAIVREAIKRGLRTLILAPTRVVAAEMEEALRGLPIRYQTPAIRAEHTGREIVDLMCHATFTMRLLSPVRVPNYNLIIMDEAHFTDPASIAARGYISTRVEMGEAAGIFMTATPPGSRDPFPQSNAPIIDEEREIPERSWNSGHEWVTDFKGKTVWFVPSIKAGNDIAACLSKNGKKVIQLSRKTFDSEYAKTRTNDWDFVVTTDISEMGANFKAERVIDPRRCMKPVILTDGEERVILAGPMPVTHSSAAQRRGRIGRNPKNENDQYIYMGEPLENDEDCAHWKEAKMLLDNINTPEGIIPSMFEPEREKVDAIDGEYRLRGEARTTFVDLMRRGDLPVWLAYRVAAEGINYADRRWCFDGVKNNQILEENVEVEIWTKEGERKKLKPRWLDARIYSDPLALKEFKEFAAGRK", "assay": "Isothermal titration calorimetry, DENV2 helicase", "assay_type": "binding", "settings": "ITC, 16°C"}, "[3]": {"target": "YFV helicase (Yellow fever virus, UniProt P03314)", "sequence (P03314 1660-2107 limits assumed)": "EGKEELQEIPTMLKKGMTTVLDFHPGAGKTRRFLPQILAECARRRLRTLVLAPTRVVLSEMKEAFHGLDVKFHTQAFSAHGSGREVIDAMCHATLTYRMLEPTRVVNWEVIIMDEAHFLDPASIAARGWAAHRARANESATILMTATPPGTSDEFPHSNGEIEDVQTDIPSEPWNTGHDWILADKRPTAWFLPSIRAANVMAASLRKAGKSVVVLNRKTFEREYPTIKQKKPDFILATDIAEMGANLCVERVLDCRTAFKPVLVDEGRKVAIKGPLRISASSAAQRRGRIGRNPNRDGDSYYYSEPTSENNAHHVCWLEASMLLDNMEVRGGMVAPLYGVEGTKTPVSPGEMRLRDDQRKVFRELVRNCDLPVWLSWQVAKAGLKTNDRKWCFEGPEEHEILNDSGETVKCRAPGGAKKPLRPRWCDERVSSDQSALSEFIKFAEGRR", "assay": "biochemical", "assay_type": "binding"}, "[4]": {"target": "T1, ZIKV helicase (Zika virus, UniProt Q32ZE1)", "T1 sequence (Q32ZE1 1670-2115 limits assumed)": "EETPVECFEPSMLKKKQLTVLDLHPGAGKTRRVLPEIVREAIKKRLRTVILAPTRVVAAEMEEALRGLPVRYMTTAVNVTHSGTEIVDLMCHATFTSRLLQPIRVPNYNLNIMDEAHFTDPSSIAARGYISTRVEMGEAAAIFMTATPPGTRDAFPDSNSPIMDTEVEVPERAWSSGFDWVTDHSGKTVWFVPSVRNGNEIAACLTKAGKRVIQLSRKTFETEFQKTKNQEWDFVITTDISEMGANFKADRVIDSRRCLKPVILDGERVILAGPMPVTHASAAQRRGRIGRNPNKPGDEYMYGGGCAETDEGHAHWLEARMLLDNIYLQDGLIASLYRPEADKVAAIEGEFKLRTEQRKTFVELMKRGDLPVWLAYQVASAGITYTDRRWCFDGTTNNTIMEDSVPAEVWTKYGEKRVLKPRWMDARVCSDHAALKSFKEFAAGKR", "assay": "Isothermal titration calorimetry, ZIKV helicase", "assay_type": "binding", "settings": "ITC, 16°C"}, "[5]": {"target": "TBEV helicase (Tick-borne encephalitis virus, UniProt Q01299)", "sequence (Q01299 1666-2110 limits assumed)": "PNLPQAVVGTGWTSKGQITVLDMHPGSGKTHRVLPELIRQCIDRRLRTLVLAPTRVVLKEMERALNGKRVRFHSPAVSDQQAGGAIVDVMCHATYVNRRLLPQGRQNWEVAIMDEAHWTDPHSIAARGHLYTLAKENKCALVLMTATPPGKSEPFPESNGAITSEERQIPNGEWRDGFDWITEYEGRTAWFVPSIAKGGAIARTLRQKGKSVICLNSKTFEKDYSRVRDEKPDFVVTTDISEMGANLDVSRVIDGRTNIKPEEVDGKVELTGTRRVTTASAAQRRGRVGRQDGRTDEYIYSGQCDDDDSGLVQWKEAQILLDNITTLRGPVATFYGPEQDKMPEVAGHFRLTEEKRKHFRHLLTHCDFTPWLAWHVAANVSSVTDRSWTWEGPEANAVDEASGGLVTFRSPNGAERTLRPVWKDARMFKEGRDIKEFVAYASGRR", "assay": "biochemical", "assay_type": "binding"}, "[6]": {"target": "T2, JEV helicase (Japanese encephalitis virus, UniProt P32886)", "T2 sequence (P32886 1676-2123 limits assumed)": "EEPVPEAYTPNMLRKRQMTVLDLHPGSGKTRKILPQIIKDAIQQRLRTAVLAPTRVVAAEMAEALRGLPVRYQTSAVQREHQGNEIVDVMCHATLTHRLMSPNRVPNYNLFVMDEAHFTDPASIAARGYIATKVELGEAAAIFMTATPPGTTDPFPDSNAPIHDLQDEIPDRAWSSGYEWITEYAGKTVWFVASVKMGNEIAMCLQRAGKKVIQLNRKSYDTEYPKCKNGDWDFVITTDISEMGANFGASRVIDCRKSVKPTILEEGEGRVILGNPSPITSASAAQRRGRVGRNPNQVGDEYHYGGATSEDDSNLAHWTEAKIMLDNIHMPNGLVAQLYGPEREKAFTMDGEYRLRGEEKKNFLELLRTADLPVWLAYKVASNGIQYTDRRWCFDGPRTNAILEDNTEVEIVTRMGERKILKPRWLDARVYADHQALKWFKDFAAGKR", "assay": "Isothermal titration calorimetry, JEV helicase", "assay_type": "binding", "settings": "ITC, 16°C"}, "[7]": {"settings": "rats, radiolabeled Zafirlukast; ref Zeng et al., 2020; cited from earlier work"}, "[8]": {"settings": "at higher doses, preclinical models; ref Finnerty et al., 1992; cited from earlier work"}}, "note": "pKd: −log10 of the molar value."}
{"smiles": "COc1cc(C(=O)NS(=O)(=O)c2ccccc2C)ccc1Cc1cn(C)c2ccc(NC(=O)OC3CCCC3)cc12", "note": "[Zafirlukast]", "values": [{"measurement": "pKd", "setting": "[1]", "value": 5.80}, {"measurement": "pKd", "setting": "[2]", "value": 5.56}, {"measurement": "pKd", "setting": "[3]", "value": 5.18}, {"measurement": "pKd", "setting": "[4]", "value": 4.86}, {"measurement": "pKd", "setting": "[5]", "value": 3.44}, {"measurement": "pKd", "setting": "[6]", "value": 3.70}, {"measurement": "Distribution across the blood-brain barrier", "setting": "[7]", "value": "minimal distribution across the blood–brain barrier"}, {"measurement": "Tumor incidence", "setting": "[8]", "value": "increased incidence of hepatocellular tumors, histiocytic sarcoma, and bladder cancer"}]}
